Counter-ions that a name gives are not always drawn. Like-named read-outs stand apart in the source and are kept apart here.
How the values were obtained:
VCAM-1 = assay: In Vitro VCAM-1 Assay (ELISA of TNF-α-stimulated endothelial cells); format: cell-based, human; conditions: HAEC or HPAEC cells stimulated with TNF-α (1 ng/ml), approx. 16 h, n = 3
Protocol: Cell Culture and compound dosing: Cultured primary human aortic (HAEC) or pulmonary (HPAEC) endothelial cells were obtained from Clonetics, Inc., and were used below passage 9. Cells were seeded in 96 well plates such that they would reach 90-95% confluency by the following day. On the following day the cells were stimulated with TNF-α (1 ng/ml) in the presence or absence of compounds dissolved in DMSO such that the final concentration of DMSO is 0.25% or less. To establish a dose curve for each compound, four concentrations in 2- to 5-fold increments were used. Cells were exposed to TNF-α and compounds for approximately 16 hours. The next day the cells were examined under microscope to score for visual signs of toxicity or cell stress.
Following 16 hr exposure to TNF-α and compound the media was discarded and the cells were washed once with Hanks Balanced Salt Solution (HBSS)/Phosphate buffered saline (PBS) (1:1). Primary antibodies against VCAM-1 (0.25 μg/ml in HBSS/PBS+5% FBS) were added and incubated for 30-60 minutes at 37° C. Cells were washed with HBSS/PBS three times, and secondary antibody Horse Radish Peroxidase (HRP)-conjugated goat anti-mouse IgG (1:500 in HBSS/PBS+5% FBS) were added and incubated for 30 minutes at 37° C. Cells were washed with HBSS/PBS four times and TMB substrate were added and incubated at room temperature in the dark until there was adequate development of blue color. The length of time of incubation was typically 5-15 minutes. 2N sulfuric acid was added to stop the color development and the data was collected by reading the absorbance on a BioRad ELISA plate reader at OD 450 nm. The results are expressed as IC50 values (the concentration (micromolar) of compound required to inhibit 50% of the maximal response of the control sample stimulated by TNF-α only). IC50's of the Examples and the free acid of the Examples are tabulated in VCAM-1 Table 1a.

Solubility in water = format: physicochemical; conditions: for solubility: water, 25 °C
[1] = Homo sapiens, Endothelial cell, meglumine salt of the Example, read-out: IC50 (μM) (n = 3)
[2] = meglumine salt of the Example, ˜25° C., read-out: Solubility (μg/ml) @ ˜25° C.
[3] = meglumine salt, value given in the synthesis example, read-out: Solubility in water
[4] = Homo sapiens, Endothelial cell, free acid of the Example, read-out: IC50 (μM) of the free acid (n = 3)
[5] = free acid of the Example, ˜25° C., read-out: Solubility, Free acid (μg/ml) @ ˜25° C.

CC(C)(Sc1cc(C(C)(C)C)c(O)c(C(C)(C)C)c1)Sc1cc(C(C)(C)C)c(OC(=O)CCC(=O)O)c(C(C)(C)C)c1 [Example 1 free acid, Butanedioic acid, mono [4-[[1-[[3,5-bis(1,1-dimethylethyl)-4-hydroxyphenyl]thio]-1-methylethyl]thio]-2,6-bis(1,1-dimethylethyl)phenyl]ester, reference compound]
IC50 (VCAM-1; free acid of the Example, read-out: IC50 (μM) of the free acid (n = 3)): 7.7 µM | Solubility, Free acid (μg/ml) @ ˜25° C. (Solubility in water; free acid of the Example, ˜25° C.): <5 µg/mL

CC(C)(Sc1cc(C(C)(C)C)c(O)c(C(C)(C)C)c1)Sc1cc(C(C)(C)C)c(OC(=O)CCC(=O)O)c(C(C)(C)C)c1 [Example 1, Butanedioic Acid, Mono [4-[[1-[[3,5-bis(1,1-dimethylethyl)-4-hydroxyphenyl]thio]-1-methylethyl]thio]-2,6-bis(1,1-dimethylethyl)phenyl]Ester Meglumine Salt]
IC50 (VCAM-1; [1]): 13 µM | solubility (Solubility in water; [2]): 390 µg/mL | solubility (Solubility in water; [3]): 390 µg/mL

CC(C)(Sc1cc(C(C)(C)C)c(O)c(C(C)(C)C)c1)Sc1cc(C(C)(C)C)c(OCC(=O)O)c(C(C)(C)C)c1 [Example 2 free acid, Acetic acid, [4-[[1-[[3,5-bis(1,1-dimethylethyl)-4-hydroxyphenyl]thio]-1-methyl-ethyl]thio]-2,6-bis(1,1-dimethylethyl)phenoxy]-, reference compound]
IC50 (VCAM-1; [4]): 10 µM | solubility (Solubility in water; [5]): < 5 µg/mL

CC(C)(Sc1cc(C(C)(C)C)c(O)c(C(C)(C)C)c1)Sc1cc(C(C)(C)C)c(OCC(=O)O)c(C(C)(C)C)c1 [Example 2, Acetic Acid, [4-[[1-[[3,5-bis(1,1-dimethylethyl)-4-hydroxyphenyl]thio]-1-methylethyl]thio]-2,6-bis(1,1-dimethylethyl)phenoxy]-, Meglumine Salt]
IC50 (VCAM-1; [1]): 6.5 µM | solubility (Solubility in water; [2]): 1010 µg/mL | solubility (Solubility in water; [3]): 1010 µg/mL

CC(C)(Sc1cc(C(C)(C)C)c(O)c(C(C)(C)C)c1)Sc1cc(C(C)(C)C)c(OCCCC(=O)O)c(C(C)(C)C)c1 [Example 3 free acid, Butanoic acid, 4-[4-[[1-[[3,5-bis(1,1-dimethylethyl)4-hydroxyphenyl]thio]-1-methyl-ethyl]thio]-2,6-bis(1,1-dimethylethyl)phenoxy]-, reference compound]
IC50 (VCAM-1; [4]): 11 µM | solubility (Solubility in water; [5]): < 5 µg/mL

CC(C)(Sc1cc(C(C)(C)C)c(O)c(C(C)(C)C)c1)Sc1cc(C(C)(C)C)c(OCCCC(=O)O)c(C(C)(C)C)c1 [Example 3, Butanoic Acid, 4-[4-[[1-[[3,5-bis(1,1-dimethylethyl)4-hydroxyphenyl]thio]-1-methylethyl]-thio]-2,6-bis(1,1-dimethylethyl)phenoxy]-, Meglumine Salt]
IC50 (VCAM-1; [1]): 12 µM | solubility (Solubility in water; [2]): 1910 µg/mL | solubility (Solubility in water; [3]): 1910 µg/mL
